The target of assay [1] is T1, 5-hydroxytryptamine receptor 2A (Homo sapiens, UniProt P28223). Description: Displacement of [3H]ketanserin from postmortem human brain membrane homogenate 5-HT2A receptor incubated for 120 mins by microbeta liquid scintillation counter analysis. The assay is classed as cell membranes.
The target of assay [2] is T1, 5-hydroxytryptamine receptor 2A. Description: Inverse agonist activity at human postmortem human brain membrane 5-HT2A receptor assessed as […] in [35S]GTPgammaS binding by liquid scintillation spectrometry analysis. The assay is classed as functional, cell membranes.
Assay [3] shares this target. Briefly: Displacement of [3H]ketanserin from human 5-HT2A receptor incubated for 120 mins by microbeta liquid scintillation counter analysis.
Assay [4] shares this target. Briefly: Inverse agonist activity at human 5-HT2A receptor assessed as […] in [35S]GTPgammaS binding by liquid scintillation spectrometry analysis. It is filed as functional. Background: Binding of GTPγS marks nucleotide exchange on a G protein.
The target is the same in assay [5]. Description: Inverse agonist activity at human prefrontal cortex 5-HT2A receptor assessed as […] in [35S]GTPgammaS binding by liquid scintillation spectrometry analysis. The assay is classed as functional, tissue-based.
For assay [6] the target is unchanged. Description: Inverse agonist activity at human 5-HT2A receptor expressed in cell membrane assessed as […] in [35S]GTPgammaS binding by liquid scintillation spectrometry analysis. The assay is classed as functional, cell membranes.
The target is the same in assay [7]. Briefly: Displacement of [3H]ketanserin from human brain cortex 5-HT2A receptor by Cheng-Prusoff equation analysis. It is filed as tissue-based. For orientation: Loss of bound radioactivity is the signal in a displacement assay; it reports binding, not function.
Assay [8] has the same target. Briefly: Displacement of [3H]ketanserin human recombinant 5-HT2A receptor by Cheng-Prusoff equation analysis.

T1 sequence (P28223 whole entry): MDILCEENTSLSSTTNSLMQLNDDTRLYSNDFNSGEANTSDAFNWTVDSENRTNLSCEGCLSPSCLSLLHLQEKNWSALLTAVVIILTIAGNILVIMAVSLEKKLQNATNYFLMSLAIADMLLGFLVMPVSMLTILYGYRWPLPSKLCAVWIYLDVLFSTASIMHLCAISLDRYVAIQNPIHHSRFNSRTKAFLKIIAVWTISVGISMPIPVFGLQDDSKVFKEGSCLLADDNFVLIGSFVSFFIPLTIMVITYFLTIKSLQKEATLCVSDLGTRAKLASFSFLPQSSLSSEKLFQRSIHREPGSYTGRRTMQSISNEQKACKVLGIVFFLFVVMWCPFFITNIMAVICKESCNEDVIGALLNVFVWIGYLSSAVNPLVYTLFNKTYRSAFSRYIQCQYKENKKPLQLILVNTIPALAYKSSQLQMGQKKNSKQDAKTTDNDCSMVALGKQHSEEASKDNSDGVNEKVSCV

By Ki is commonly meant a dissociation constant, usually derived from enzyme kinetics or from competition with a known ligand. Usually IC50 stands for the point on the concentration scale where inhibition reaches its midpoint. In the case of `CC1COc2ccc(CNC(=O)N(Cc3ccc(F)cc3)C3CCN(C)CC3)cc21` (stereo not given), the values for the Ki in assay [1] and in assay [3] were 5.01 nM and 0.158 nM, respectively. The IC50 in assay [2] was 0.316 nM; in assay [4], 0.158 nM; in assay [5], 12.6 nM; in assay [6] it was 79.4 nM.

Regarding `CN1CCC(N(Cc2ccc(F)cc2)C(=O)NCc2ccc3c(c2)CC(C)(C)O3)CC1`, the Ki in assay [1] is 0.0501 nM; in assay [7] it was 0.06 nM; in assay [8], 0.003 nM; in assay [3], 0.00251 nM. Also, the IC50 was 0.0501 nM in assay [2], 0.0631 nM in assay [4], 12.6 nM in assay [5] and 79.4 nM in assay [6].

As to `CC1Cc2cc(CNC(=O)N(Cc3ccc(F)cc3)C3CCN(C)CC3)ccc2O1` (stereo not given), the Ki in assay [1] is 0.501 nM; in assay [3], 0.0316 nM. For the same molecule, the IC50 in assay [2] was 0.251 nM; in assay [4], 0.251 nM; in assay [5] it was 12.6 nM; in assay [6], 79.4 nM.

Values taken from ChEMBL document CHEMBL5331125, “Design, Synthesis, Molecular Docking, and Biological Evaluation of Novel Pimavanserin-Based Analogues as Potential Serotonin 5-HT2A Receptor Inverse Agonists” (J Med Chem, 2023).
